# Data taken from paper PMC10610016, “New Hybrid Compounds Incorporating Natural Products as Multifunctional Agents against Alzheimer’s Disease” (Pharmaceutics, 2023).
# Assays:
# ABTS assay = format: biochemical
# Method: The ABTS assay was performed according to the methods reported in literature. Briefly, 7 mM of ABTS was mixed with 2.45 mM of K2S2O8 solution, ratio 1:1, in 10 mM phosphate buffer (pH 7.4). The mixture was incubated in a dark box at r.t. for 12 h, then the stock solution was diluted until the absorbance was 0.70 ± 0.02 at 734 nm.
# In a 96-well plate, 190 µL ABTS working solution and 10 µL sample solution (compounds 2a–c, 3a–c at concentration of 100 μM) were mixed and the absorbance was measured (734 nm) using a SPECTROstarNano (220–1000 nm) UV–Vis spectrophotometer, Ortenberg, Germany. Then, for compounds 2a–c the EC50 was calculated and the values were expressed in TEAC equivalents. Each concentration was tested in triplicate and the EC50 was reported as the mean ± SEM of three independent experiments.
# [1] = DPPH radical scavenging assay; format: biochemical
# Method: The DPPH assay was carried out in a 96-microwell plate according to a previously described protocol. In brief, DPPH solution (60 µM in MeOH) was added to studied compounds or MeOH as the control. The 96-microwell plate was incubated (in the dark, at r.t. for 1 h) and the absorbance values were read at 517 nm by a SPECTROstarNano (220–1000 nm) UV–Vis spectrophotometer, Ortenberg, Germany. During the first screening, all compounds were tested ad 100 µM, then for compounds 2a–c the EC50 (effective concentration), the concentration of substrate that causes a 50% reduction in the DPPH colour, was calculated.
# All experiments were made in triplicate. The percentage of the antioxidant activity (%AA) of the compounds was determined according to Equation (1):%AA = ((AbsDPPH − Abssample)/AbsDPPH) × 100(1)
# AbsDPPH is the absorbance of DPPH solution, and Abssample is the absorbance of DPPH solution containing the tested compound.
# Each concentration was tested in triplicate and the EC50 value was reported as the mean ± the standard error of the mean (SEM) of three independent experiments.
# rat brain homogenate = test: TBARS assay, ex vivo rat brain homogenate (Fe3+/ascorbic acid lipid peroxidation); format: biochemical; conditions: compound 1 μM
# Method: The TBARS assay was carried on in accordance with a previously published protocol. Briefly, the rat brain, freshly isolated, was homogenized in 10% (w/v) phosphate buffer, pH 7.4. The stock solutions of compounds 2a–c and 3a–c (10 mM in DMSO) were prepared and then diluted at three different concentrations (1 mM, 100 µM, and 10 µM) with phosphate buffer pH 7.4. The experiment was performed in a falcon tube where the rat brain homogenate (100 µL) was added to FeCl3 (20 µM) and ascorbic acid (100 µM) with or without test compounds. […] All samples were heated at 37 °C and were stirred for 30 min. After this period, thiobarbituric acid (1% w/v in 0.05 N NaOH) and 25% v/v HCl were added and the falcon tubes were boiled for 10 min. Then, they were cooled in an ice-cold water bath. Finally, the extraction was executed using n-butanol (3 mL) and the tubes were centrifuged at 2000 g for 10 min. The organic portion was transferred into 96-well plates and the absorbance, at 532 nm, was recorded using a SPECTROstarNano (220–1000 nm) UV–Vis spectrophotometer, Ortenberg, Germany. The TBARS was reported as nmoles of malondialdehyde (MDA)/10 mg of rat brain tissue, by interpolation with the standard curve of 1,1,3,3-tetramethoxypropane. Data represent the mean ± SEM of the triplicate.
# [2] = mean ± SEM of three independent experiments
smiles,measurement,setting,value
"O=C(/C=C/c1ccc(O)c(O)c1)NOCc1cccc(C(F)(F)F)c1 [Compound 2b, (E)-3-(3,4-dihydroxyphenyl)-N-((3-(trifluoromethyl)benzyl)oxy)acrylamide]","radical scavenger / antioxidant activity, ABTS",ABTS assay; compound 100 µM,98.8%
same,EC50,ABTS assay; [2],13.4 ± 0.1 µM
same,"TEAC, ABTS",ABTS assay; [2],11.7 ± 0.01 µM
same,melting point,,110 to 112 °C
same,"%AA (percentage of antioxidant activity), DPPH","[1]; compound 100 µM, DPPH 60 µM in MeOH, 1 h",96%
same,EC50,[1]; [2],6.1 ± 0.1 µM
same,"TEAC (Trolox equivalent antioxidant capacity), DPPH",[1]; [2],10.9 ± 0.3 µM
same,antioxidant effect on TBARS production in rat brain,rat brain homogenate,maintained its profile
